Experimental data as given in patent publication US11225480B2, “Malic enzyme inhibitors” (SUN PHARMA ADVANCED RESEARCH COMPANY LTD, priority 2019, dated 2022).

What was measured:
Type in all cases: biochemical
human ME2 enzyme = human ME2 enzyme (Homo sapiens, UniProt P23368); assay: ME2 inhibition assay (diaphorase/resazurin coupled fluorescence); conditions: 10 μM compound concentration; read-out: Malic Enzyme 2 % inhibition (10 μM)
Protocol: (§1) ME2 catalyzes the oxidative decarboxylation of malate to pyruvate with conversion of the co-factor β-NAD+ to β-NADH. In the fluorescence assay, a coupled reaction is set up where in an enzyme, Diaphorase, utilizes NADH generated by ME2, to convert the dye resazurin to a fluorescent molecule resorufin. Resorufin has a characteristic fluorescence with excitation/emission at 540/600 nm (SLAS Discov., 2017 April 1:2472555217706649).
The enzyme activity inhibition assay is set up in a 200 μL final reaction volume in a 96-well plate. As per the experimental design, 2 μL of the compounds at 100× the desired concentration (10 μM) in DMSO were added to the respective wells with 178 μL of assay buffer (50 mM Tris-HCl pH 7.5, 10 mM MnCl2, 7 mM L-malate, 50 μM Resazurin and 0.025 mg/ml Diapharose). The 96-well plate was incubated on a plate shaker at room temperature for 15 minutes protected from light. The well contents were gently mixed by adding 10 μL of 60 nM human ME2 enzyme to the wells and the plate was incubated on a shaker at room temperature for 5 minutes protected from light. Suitable ‘enzyme only’ and ‘no enzyme’ controls were included in the experiment. The enzymatic reaction was started by adding 10 μL of 2 mM β-NAD+. The reaction was gently mixed and the plate was initially left on a shaker at room temperature for −7 minutes protected from light. Later, the plate was incubated without shaking at room temperature for 2 hours. At the end of 2 hours, the fluorescence of the wells was measured at excitation 540 nm and emission 600 nm. The % enzyme activity of the compounds is obtained by normalizing the data with enzyme only (100%) and no enzyme controls (0%) using GraphPad Prism software 7.04.

human ME3 enzyme = molecular target: T1, human ME3 enzyme (Homo sapiens, UniProt Q16798); assay: ME3 inhibition assay (diaphorase/resazurin coupled fluorescence); conditions: 10 μM compound concentration; read-out: Malic Enzyme 3 % inhibition (10 μM)
T1 sequence (Q16798 1-604): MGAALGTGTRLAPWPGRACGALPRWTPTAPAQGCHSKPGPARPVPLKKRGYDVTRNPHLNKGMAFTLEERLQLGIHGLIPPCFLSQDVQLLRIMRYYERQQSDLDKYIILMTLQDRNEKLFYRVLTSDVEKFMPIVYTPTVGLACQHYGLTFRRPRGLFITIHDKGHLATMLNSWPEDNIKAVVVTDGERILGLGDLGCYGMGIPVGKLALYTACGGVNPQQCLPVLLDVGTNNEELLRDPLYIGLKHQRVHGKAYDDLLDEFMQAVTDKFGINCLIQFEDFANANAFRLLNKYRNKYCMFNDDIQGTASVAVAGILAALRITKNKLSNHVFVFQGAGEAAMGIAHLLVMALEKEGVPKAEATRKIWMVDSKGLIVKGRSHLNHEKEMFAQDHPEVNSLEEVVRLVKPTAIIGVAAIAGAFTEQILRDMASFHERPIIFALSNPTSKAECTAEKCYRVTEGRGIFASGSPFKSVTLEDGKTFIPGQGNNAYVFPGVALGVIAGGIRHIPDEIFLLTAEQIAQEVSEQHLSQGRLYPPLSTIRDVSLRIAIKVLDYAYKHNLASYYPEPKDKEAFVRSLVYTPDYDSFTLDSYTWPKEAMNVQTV
Procedure, shortened: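 Coupled read-out: NADPH made by human ME3 (20 nM stock) drives diaphorase conversion of resazurin (50 μM) to resorufin; buffer 50 mM Tris-HCl pH 7.5, 10 mM MnCl2, 3 mM L-malate.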

human ME1 enzyme = molecular target: T2, human ME1 enzyme (Homo sapiens, UniProt P48163); assay: ME1 inhibition assay (diaphorase/resazurin coupled fluorescence); conditions: 10 μM compound concentration; read-out: Malic Enzyme 1 % inhibition (10 μM)
T2 sequence (P48163 1-572): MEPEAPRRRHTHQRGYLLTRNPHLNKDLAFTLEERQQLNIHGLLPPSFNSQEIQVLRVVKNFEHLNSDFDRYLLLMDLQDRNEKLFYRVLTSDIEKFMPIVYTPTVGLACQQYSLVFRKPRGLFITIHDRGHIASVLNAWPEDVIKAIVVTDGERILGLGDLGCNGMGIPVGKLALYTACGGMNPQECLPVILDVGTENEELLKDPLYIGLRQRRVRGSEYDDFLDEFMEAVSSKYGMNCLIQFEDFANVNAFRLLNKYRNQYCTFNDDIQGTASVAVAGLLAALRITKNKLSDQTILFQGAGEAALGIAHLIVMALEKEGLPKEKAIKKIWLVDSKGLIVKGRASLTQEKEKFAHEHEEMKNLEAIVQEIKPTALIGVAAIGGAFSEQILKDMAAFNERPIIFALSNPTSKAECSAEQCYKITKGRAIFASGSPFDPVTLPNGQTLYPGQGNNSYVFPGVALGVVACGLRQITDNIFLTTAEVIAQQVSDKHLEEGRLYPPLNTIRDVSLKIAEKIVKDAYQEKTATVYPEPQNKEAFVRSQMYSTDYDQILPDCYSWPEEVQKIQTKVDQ
Protocol: as §1, with “ME1” for “ME2”, “β-NADP+” for “β-NAD+”, “β-NADPH.” for “β-NADH.”, “NADPH” for “NADH”, “ME1,” for “ME2,”
The enzyme activity inhibition assay is set up in a 200 μL final reaction volume in a 96-well plate. As per the experimental design, 2 μL of the compounds at 100× the desired concentration (10 μM) in DMSO were added to the respective wells with 178 μL of assay buffer (50 mM Tris-HCl pH 7.5, 10 mM MnCl2, 2 mM L-malate, 10 μM Resazurin and 0.01 mg/ml Diapharose). The 96-well plate was incubated on a plate shaker at room temperature for 15 minutes protected from light. The well contents were gently mixed by adding 10 μL of 20 nM human ME1 enzyme to the wells and the plate was incubated on a shaker at room temperature for 5 minutes protected from light. Suitable ‘enzyme only’ and ‘no enzyme’ controls were included in the experiment. The enzymatic reaction was started by adding 10 μL of 0.3 mM D-NADP+. The reaction was gently mixed and the plate was initially left on a shaker at room temperature for −7 minutes protected from light. Later, the plate was incubated without shaking at room temperature for 2 hours. At the end of 2 hours, the fluorescence of the wells was measured at excitation 540 nm and emission 600 nm. The % enzyme activity of the compounds is obtained by normalizing the data with enzyme only (100%) and no enzyme controls (0%) using GraphPad Prism software 7.04.

human ME2 enzyme, sequence (P23368 19-584): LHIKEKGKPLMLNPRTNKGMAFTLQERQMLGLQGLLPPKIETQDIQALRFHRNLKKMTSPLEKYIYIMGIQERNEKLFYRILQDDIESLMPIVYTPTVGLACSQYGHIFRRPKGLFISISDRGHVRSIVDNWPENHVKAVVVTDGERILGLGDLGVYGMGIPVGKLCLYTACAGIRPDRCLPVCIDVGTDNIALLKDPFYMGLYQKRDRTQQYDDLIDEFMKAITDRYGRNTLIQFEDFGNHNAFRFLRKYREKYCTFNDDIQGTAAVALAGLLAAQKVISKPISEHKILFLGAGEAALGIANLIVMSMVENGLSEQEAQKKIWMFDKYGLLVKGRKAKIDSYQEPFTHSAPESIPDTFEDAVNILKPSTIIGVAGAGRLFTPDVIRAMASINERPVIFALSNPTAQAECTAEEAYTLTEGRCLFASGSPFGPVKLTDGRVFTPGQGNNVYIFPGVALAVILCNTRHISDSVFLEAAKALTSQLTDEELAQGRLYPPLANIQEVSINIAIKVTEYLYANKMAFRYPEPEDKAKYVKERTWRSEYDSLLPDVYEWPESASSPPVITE

In the case of O=C(CCc1cccc2ccccc12)N1CCN(c2ccc(O)cc2)CC1 [I.46, 1-[4-(4-Hydroxy-phenyl)-piperazin-1-yl]-3-naphthalen-1-yl-propan-1-one], the inhibition at 10 µM (human ME2 enzyme) is reported as > 90%, the inhibition at 10 µM (human ME3 enzyme) is reported as > 90% and the inhibition at 10 µM (human ME1 enzyme) is reported as > 90%.
In the case of O=C(c1c[nH]c2ccccc2c1=O)N1CCN(c2ccc(O)cc2)CC1 [I.47, 3-[4-(4-Hydroxy-phenyl)-piperazine-1-carbonyl]-1H-quinolin-4-one], the inhibition at 10 µM (human ME2 enzyme) is reported as > 90%, the inhibition at 10 µM (human ME3 enzyme) is reported as > 90% and the inhibition at 10 µM (human ME1 enzyme) is reported as > 90%.
For O=C(C(c1ccccc1)c1ccccc1)N1CCN(c2ccc(O)cn2)CC1 [I.48, 1-[4-(5-Hydroxy-2-pyridyl)-piperazin-1-yl]-2,2-diphenyl-ethanone], the inhibition at 10 µM (human ME2 enzyme) was 70 to 89%, the inhibition at 10 µM (human ME3 enzyme) was > 90% and the inhibition at 10 µM (human ME1 enzyme) was 70 to 89%.
O=C(Cc1ccccc1Oc1ccccc1)N1CCN(c2ccc(O)cc2)CC1 [I.49, 1-[4-(4-hydroxyphenyl)piperazin-1-yl]-2-(2-phenoxyphenyl)ethanone] was tested, and the inhibition at 10 µM (human ME2 enzyme) was > 90%, the inhibition at 10 µM (human ME3 enzyme) was > 90% and the inhibition at 10 µM (human ME1 enzyme) was > 90%.
With O=C(c1ccnc(N2CCCCC2)c1)N1CCN(c2ccc(O)cc2)CC1 [I.50, [4-(4-Hydroxy-phenyl)-piperazin-1-yl]-[2-(1-piperidyl)-4-pyridyl]-methanone] the inhibition at 10 µM (human ME2 enzyme) was > 90%, the inhibition at 10 µM (human ME3 enzyme) was > 90% and the inhibition at 10 µM (human ME1 enzyme) was > 90%.
With O=C(CCc1c[nH]c2ccccc12)N1CCN(c2ccc(O)cn2)CC1 [I.51, 1-[4-(5-Hydroxy-pyridin-2-yl)-piperazin-1-yl]-3-(1H-indol-3-yl)-propan-1-one] the inhibition at 10 µM (human ME2 enzyme) was 70 to 89%, the inhibition at 10 µM (human ME3 enzyme) was > 90% and the inhibition at 10 µM (human ME1 enzyme) was 70 to 89%.
Cc1cc(N2CCN(C(=O)Cc3ccccc3)CC2)ccc1O [I.52, 1-[4-(4-Hydroxy-3-methyl-phenyl)-piperazin-1-yl]-2-phenyl-ethanone] was tested, and the inhibition at 10 µM (human ME2 enzyme) was > 90%, the inhibition at 10 µM (human ME3 enzyme) was > 90% and the inhibition at 10 µM (human ME1 enzyme) was > 90%.
With O=C(CCc1c2ccccc2cc2ccccc12)N1CCN(c2ccc(O)cc2)CC1 [I.53, 3-Anthracen-9-yl-1-[4-(4-hydroxy-phenyl)-piperazin-1-yl]-propan-1-one] the inhibition at 10 µM (human ME2 enzyme) was > 90%, the inhibition at 10 µM (human ME3 enzyme) was > 90% and the inhibition at 10 µM (human ME1 enzyme) was > 90%.
For O=C(c1c[nH]c2ccccc2c1=O)N1CCN(c2ccc(O)cn2)CC1 [I.54, 3-[4-(5-Hydroxy-2-pyridyl)-piperazine-1-carbonyl]-1H-quinolin-4-one], the inhibition at 10 µM (human ME2 enzyme) was 50 to 69%, the inhibition at 10 µM (human ME3 enzyme) was > 90% and the inhibition at 10 µM (human ME1 enzyme) was 70 to 89%.
With O=C(CC12CC3CC(CC(C3)C1)C2)N1CCN(c2ccc(O)cn2)CC1 [I.55, 2-(1-adamantyl)-1-[4-(5-hydroxy-2-pyridyl)piperazin-1-yl]ethanone] the inhibition at 10 µM (human ME2 enzyme) was 70 to 89%, the inhibition at 10 µM (human ME3 enzyme) was > 90% and the inhibition at 10 µM (human ME1 enzyme) was > 90%.
O=C(CC12CC3CC(CC(O)(C3)C1)C2)N1CCN(c2ccc(O)cn2)CC1 [I.56, 2-(3-Hydroxy-1-adamantyl)-1-[4-(5-hydroxy-2-pyridyl)-piperazin-1-yl]ethanone] was tested, and the inhibition at 10 µM (human ME2 enzyme) was 70 to 89%, the inhibition at 10 µM (human ME3 enzyme) was > 90% and the inhibition at 10 µM (human ME1 enzyme) was 50 to 69%.
For O=C(CNCC12CC3CC(CC(C3)C1)C2)N1CCN(c2ccc(O)cn2)CC1 [I.57, 2-(1-adamantylmethylamino)-1-[4-(5-hydroxy-2-pyridyl)piperazin-1-yl]ethanone], the inhibition at 10 µM (human ME2 enzyme) was 70 to 89%, the inhibition at 10 µM (human ME3 enzyme) was > 90% and the inhibition at 10 µM (human ME1 enzyme) was 70 to 89%.
With O=C(C(c1ccc(Cl)cc1)c1ccc(Cl)cc1)N1CCN(c2ccc(O)cn2)CC1 [I.58, 2,2-bis(4-Chloro-phenyl)-1-[4-(5-hydroxy-2-pyridyl)-piperazin-1-yl]ethanone] the inhibition at 10 µM (human ME2 enzyme) was 50 to 69%, the inhibition at 10 µM (human ME3 enzyme) was > 90% and the inhibition at 10 µM (human ME1 enzyme) was 70 to 89%.
O=C(c1cn(CC2CC2)c2ccccc2c1=O)N1CCN(c2ccc(O)cn2)CC1 [I.59, 1-(Cyclo-propyl-methyl)-3-[4-(5-hydroxy-2-pyridyl)-piperazine-1-carbonyl]-quinolin-4-one] was tested, and the inhibition at 10 µM (human ME2 enzyme) was 70 to 89%, the inhibition at 10 µM (human ME3 enzyme) was > 90% and the inhibition at 10 µM (human ME1 enzyme) was 70 to 89%.
With O=C(C=C1c2ccccc2-c2ccccc21)N1CCN(c2ccc(O)cn2)CC1 [I.60, 2-Fluoren-9-ylidene-1-[4-(5-hydroxy-2-pyridyl)-piperazin-1-yl]ethanone] the inhibition at 10 µM (human ME2 enzyme) was 70 to 89%, the inhibition at 10 µM (human ME3 enzyme) was > 90% and the inhibition at 10 µM (human ME1 enzyme) was 70 to 89%.
With O=C(CC1c2ccccc2-c2ccccc21)N1CCN(c2ccc(O)cn2)CC1 [I.61, 2-(9H-Fluoren-9-yl)-1-[4-(5-hydroxy-2-pyridyl)-piperazin-1-yl]ethanone] the inhibition at 10 µM (human ME2 enzyme) was 70 to 89%, the inhibition at 10 µM (human ME3 enzyme) was > 90% and the inhibition at 10 µM (human ME1 enzyme) was 70 to 89%.
With O=C(Cc1c[nH]c2ccccc12)N1CCN(c2ccc(O)cn2)CC1 [I.62, 1-[4-(5-Hydroxy-pyridin-2-yl)-piperazin-1-yl]-2-(1H-indol-3-yl)-ethanone] the inhibition at 10 µM (human ME2 enzyme) was 70 to 89%, the inhibition at 10 µM (human ME3 enzyme) was > 90% and the inhibition at 10 µM (human ME1 enzyme) was 70 to 89%.
With O=C(c1c[nH]c2ncccc12)N1CCN(c2ccc(O)cn2)CC1 [I.63, [4-(5-Hydroxy-pyridin-2-yl)-piperazin-1-yl]-(1H-pyrrolo[2,3-b]pyridin-3-yl)-methanone] the inhibition at 10 µM (human ME2 enzyme) was 70 to 89%, the inhibition at 10 µM (human ME3 enzyme) was > 90% and the inhibition at 10 µM (human ME1 enzyme) was 70 to 89%.
O=C(c1c2ccccc2cc2ccccc12)N1CCN(c2ccc(O)cn2)CC1 [I.64] was tested, and the inhibition at 10 µM (human ME2 enzyme) was 50 to 69%, the inhibition at 10 µM (human ME3 enzyme) was > 90% and the inhibition at 10 µM (human ME1 enzyme) was 70 to 89%.
For O=C(CCCc1ccccc1)N1CCN(c2ccc(O)cn2)CC1 [I.65, 1-[4-(5-Hydroxy-pyridin-2-yl)-piperazin-1-yl]-4-phenylbutan-1-one], the inhibition at 10 µM (human ME2 enzyme) was 70 to 89%, the inhibition at 10 µM (human ME3 enzyme) was > 90% and the inhibition at 10 µM (human ME1 enzyme) was 70 to 89%.
